Here are results for ten compounds from ChEMBL document CHEMBL1201862, “PubChem BioAssay data set” (2004).

Assay in all cases: inhibition of tumour cell growth, NCI panel, 48 h
Experiment [1] concerns SF-295.
Experiment [2] relates to OVCAR-4.
Experiment [3] deals with MOLT-4.
Experiment [4] relates to COLO 205.
Experiment [5] deals with SNB-75.
Experiment [6] relates to SK-MEL-2.
Experiment [7] concerns MDA-MB-435.
Experiment [8] deals with HCC 2998.
Experiment [9] concerns SF-539.
Experiment [10] concerns HOP-62.
In experiment [11] the test system is EKVX.
In experiment [12] the test system is SK-MEL-28.
Experiment [13] concerns HT-29.
Experiment [14] relates to MDA-N.
The test system of experiment [15] is SN12C.
The subject of experiment [16] is LOX IMVI.
In experiment [17] the test system is UACC-62.
The test system of experiment [18] is SK-MEL-5.
The subject of experiment [19] is KM12.
Experiment [20] relates to RXF 393.

SMILES strings stand for the structures.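 48-hour exposure; five concentrations; linearly interpolated endpoints. At the GI50, growth is halved.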 Active and inactive are the calls of the source. Cut-off read from the data, not from the text of the source: active = GI50 up to about 1.1 µM and inactive = higher.

As for `COc1cccc(-c2nc(N)c(C#N)c3c2CCS(=O)(=O)c2ccc(C)cc2-3)c1`, the GI50 in [1] was 23.6 µM (inactive); in [2], > 100 µM (inactive); in [3], 22.9 µM (inactive); in experiment [4], 8.05 µM (inactive); in experiment [5] it was 10.4 µM (inactive); in [6], 38.3 µM (inactive). Moreover, the GI50 was 4.85 µM (inactive) in experiment [7]; 17.6 µM (inactive) in [8]; 33.6 µM (inactive) in [9]; 30.2 µM (inactive) in experiment [10]; 50.6 µM (inactive) in experiment [11]; > 78.5 µM (inactive) in experiment [12]. For the same compound, the GI50 was 9.68 µM (inactive) in experiment [13]; 3.08 µM (inactive) in experiment [14]; 44.4 µM (inactive) in experiment [15]; 31.4 µM (inactive) in experiment [16]; 17.7 µM (inactive) in [17]; 5.81 µM (inactive) in [18]. For the same compound, the GI50 in experiment [19] was 7.85 µM (inactive).
`COc1ccc(-c2coc3c4c(ccc3c2=O)OCO4)cc1OC`: the GI50 in experiment [1] was 27.9 µM (inactive); in experiment [2], 22.5 µM (inactive); in experiment [3] it was > 100 µM (inactive); in experiment [4], > 100 µM (inactive); in [5] it was 38.2 µM (inactive); in experiment [6], 65.3 µM (inactive). In addition, the GI50 in [7] is 5.87 µM (inactive); in experiment [8], > 100 µM (inactive); in experiment [9], 40.6 µM (inactive); in experiment [10], 36.7 µM (inactive); in experiment [11], 38.5 µM (inactive); in [12], > 100 µM (inactive). Also, the GI50 in experiment [13] was > 100 µM (inactive); in experiment [14], 5.79 µM (inactive); in experiment [15], > 100 µM (inactive); in [16], 98.2 µM (inactive); in experiment [17], 44.9 µM (inactive); in experiment [18] it was 55.5 µM (inactive). In addition, the GI50 in experiment [19] was 83.6 µM (inactive).
On to `CC(=O)N1CCN(CCCCN2c3ccccc3Sc3cc(N=[N+]=[N-])ccc32)CC1`, for which the GI50 was 16.8 µM (inactive) in experiment [1]; 8.47 µM (inactive) in [3]; 14.2 µM (inactive) in experiment [4]; 13 µM (inactive) in experiment [5]; 15.6 µM (inactive) in experiment [7]; 14.5 µM (inactive) in [8]. For the same compound, the GI50 was 17.4 µM (inactive) in experiment [9]; 14.3 µM (inactive) in [10]; 18.2 µM (inactive) in [11]; 18.1 µM (inactive) in [12]; 13.6 µM (inactive) in experiment [13]; 9.1 µM (inactive) in [20]. Also, the GI50 in experiment [14] was 16.7 µM (inactive); in experiment [15], 15.6 µM (inactive); in [16], 14.9 µM (inactive); in experiment [17], 2.69 µM (inactive); in experiment [19], 13.5 µM (inactive).
With `O=c1ccn(C2OC(CO)C(O)C2[Se]c2ccccc2)c(=O)[nH]1` (stereo unspecified), the GI50 in experiment [1], in experiment [2], in [3], in experiment [4], in [5] and in experiment [6] was > 100 µM (inactive) in each case. Further, the GI50 in [7] is > 100 µM (inactive); in [8], 92.3 µM (inactive); in experiment [9], > 100 µM (inactive); in experiment [10], > 100 µM (inactive); in experiment [11], > 100 µM (inactive); in experiment [12], > 100 µM (inactive). Also, the GI50 in experiment [13] was > 100 µM (inactive); in experiment [14], > 100 µM (inactive); in [15], > 100 µM (inactive); in experiment [16], > 100 µM (inactive); in [17], 0.353 µM (active); in [18] it was > 100 µM (inactive). Also, in [19], the GI50 was > 100 µM (inactive).
Turning to `CC(C)=CC(=O)C[C@H]1C(=O)O[C@@H]2C[C@H]3C(C)=CC(=O)[C@@H](O)[C@]3(C)[C@H]3[C@@]4(O)OC[C@]32[C@@H]1[C@@H](C)[C@H]4O`, the GI50 in [1] is 0.023 µM (active); in experiment [2], 0.0364 µM (active); in experiment [3], < 0.01 µM (active); in experiment [4] it was 0.125 µM (active); in experiment [5], 0.0148 µM (active); in experiment [6], 0.0311 µM (active). For the same compound, the GI50 in experiment [7] was 0.0222 µM (active); in experiment [8], 0.0313 µM (active); in [9], < 0.01 µM (active); in [10], 0.0227 µM (active); in experiment [11], 0.175 µM (active); in [12], < 0.0114 µM (active). The GI50 in [13] is < 0.0107 µM (active); in [14], < 0.0189 µM (active); in experiment [15] it was 0.043 µM (active); in [16], < 0.01 µM (active); in [17], 0.0313 µM (active); in experiment [18], < 0.01 µM (active). Also, the GI50 in experiment [19] was < 0.0169 µM (active).
For `CCOC(=O)N1CCC2(CC1)C[C@@](C(C)=O)(c1ccccc1)C(C)O2` (stereo partly specified), the GI50 in [1] was > 100 µM (inactive); in experiment [2], > 100 µM (inactive); in experiment [3], > 100 µM (inactive); in [4], > 100 µM (inactive); in [5] it was 80.7 µM (inactive); in experiment [6] it was > 100 µM (inactive). The GI50 in experiment [7], in [8], in experiment [9], in [10], in experiment [11] and in experiment [12] was > 100 µM (inactive) throughout. The GI50 in experiment [13] is > 100 µM (inactive); in experiment [14] it was 85.1 µM (inactive); in [16], > 100 µM (inactive); in experiment [17] it was 56 µM (inactive); in experiment [18] it was > 100 µM (inactive); in experiment [19] it was > 100 µM (inactive).
Take `COC(=O)c1c(C(=O)OC)c2c3ccccc3n(C)c2c2c1c1ccccc1n2C`: the GI50 is 91.4 µM (inactive) in experiment [1]; 31.4 µM (inactive) in [2]; > 100 µM (inactive) in experiment [3]; > 100 µM (inactive) in experiment [4]; 25.8 µM (inactive) in [5]; 46.8 µM (inactive) in experiment [6]. Also, the GI50 in [7] was > 100 µM (inactive); in experiment [8] it was > 100 µM (inactive); in [9] it was 45.9 µM (inactive); in experiment [10] it was 19.3 µM (inactive); in experiment [11] it was 47.1 µM (inactive); in experiment [12], > 100 µM (inactive). Further, the GI50 in experiment [13] is > 100 µM (inactive); in experiment [14] it was > 100 µM (inactive); in experiment [15], > 100 µM (inactive); in [16], > 100 µM (inactive); in [17] it was > 100 µM (inactive); in [18] it was 74.5 µM (inactive). Moreover, the GI50 in [19] is > 100 µM (inactive).
Regarding `Cc1ccc(/N=C2N=C(Cl)/C(=C\c3ccco3)N\2)cc1`, the GI50 in experiment [1] is > 100 µM (inactive); in [2] it was > 100 µM (inactive); in experiment [3] it was > 91.8 µM (inactive); in [4], > 100 µM (inactive); in experiment [5] it was > 100 µM (inactive); in experiment [6], > 100 µM (inactive). Also, the GI50 in experiment [7], in experiment [9], in experiment [10], in experiment [11], in [12] and in experiment [13] was > 100 µM (inactive) each time. Besides, the GI50 in experiment [20], in experiment [14], in experiment [15], in experiment [16], in [17] and in experiment [18] was > 100 µM (inactive) each time. Moreover, the GI50 in [19] is > 100 µM (inactive).
`O=C(O)c1nnsc1COCc1ccccc1`: the GI50 in experiment [1], in experiment [2], in [3], in [4], in experiment [5] and in experiment [6] was > 100 µM (inactive) in each case. The GI50 in [7], in experiment [9], in experiment [10], in experiment [11], in experiment [12] and in experiment [13] was > 100 µM (inactive) in each case. Further, the GI50 in experiment [20], in experiment [14], in experiment [15], in experiment [16], in experiment [17] and in experiment [18] was > 100 µM (inactive) each time. The GI50 in [19] is > 100 µM (inactive).
In the case of `Cc1cc(C)nc(NS(=O)(=O)c2ccc(Nc3c4ccccc4nc4c(C(=O)NC(CO)(CO)CO)cccc34)cc2)n1`, the GI50 in experiment [1] was 30.8 µM (inactive); in experiment [2], 45.9 µM (inactive); in experiment [3] it was 6.1 µM (inactive); in experiment [4], 20.1 µM (inactive); in [5] it was 5.65 µM (inactive); in [6] it was 20.8 µM (inactive). Also, the GI50 in experiment [7] was 24.9 µM (inactive); in [8], 16 µM (inactive); in experiment [10], 26.7 µM (inactive); in experiment [11] it was 69 µM (inactive); in experiment [12], 27.1 µM (inactive); in [13] it was 28.1 µM (inactive). Besides, the GI50 in [14] is 24.1 µM (inactive); in [15], 29.6 µM (inactive); in experiment [16], 17.3 µM (inactive); in experiment [17], 31.3 µM (inactive); in experiment [18], 20.6 µM (inactive); in experiment [19] it was 17.9 µM (inactive).
